The nature of data set [1]: Dipeptide half life on IGF1 (p-NH2-F)A19 analogs in PBS. To be noted: buffer. Type of data set: physicochemical. As for the experimental part: Accordingly, the IGF1A chain alone was determined to be a good model for the study of pro-drug half life on IGF1 B:A (Y^B16L^B17) analog peptides. […] For simplicity, prodrug half lives were determined using only the IGF1 A chain in the absence of the B chain. The half lives of each propeptide was determined as described in Example 5.

For data set [2], the target named is T1, IGF-1 receptor (Homo sapiens, UniProt P08069). As to the kind of experiment: IGF-1 receptor phosphorylation assay, receptor transfected HEK293 cells. Details: expressed in transfected cells; host or cells: HEK293. In kind it is cell-based. To be noted: Table 10. As for the experimental part: (§1) Color development was stopped 5 min later by adding 0.05 ml 1 N HCl. Absorbance at 450 nm was measured on Titertek Multiscan MCC340 (ThermoFisher, Pittsburgh, Pa.).
T1 sequence (P08069 31-736 limits assumed): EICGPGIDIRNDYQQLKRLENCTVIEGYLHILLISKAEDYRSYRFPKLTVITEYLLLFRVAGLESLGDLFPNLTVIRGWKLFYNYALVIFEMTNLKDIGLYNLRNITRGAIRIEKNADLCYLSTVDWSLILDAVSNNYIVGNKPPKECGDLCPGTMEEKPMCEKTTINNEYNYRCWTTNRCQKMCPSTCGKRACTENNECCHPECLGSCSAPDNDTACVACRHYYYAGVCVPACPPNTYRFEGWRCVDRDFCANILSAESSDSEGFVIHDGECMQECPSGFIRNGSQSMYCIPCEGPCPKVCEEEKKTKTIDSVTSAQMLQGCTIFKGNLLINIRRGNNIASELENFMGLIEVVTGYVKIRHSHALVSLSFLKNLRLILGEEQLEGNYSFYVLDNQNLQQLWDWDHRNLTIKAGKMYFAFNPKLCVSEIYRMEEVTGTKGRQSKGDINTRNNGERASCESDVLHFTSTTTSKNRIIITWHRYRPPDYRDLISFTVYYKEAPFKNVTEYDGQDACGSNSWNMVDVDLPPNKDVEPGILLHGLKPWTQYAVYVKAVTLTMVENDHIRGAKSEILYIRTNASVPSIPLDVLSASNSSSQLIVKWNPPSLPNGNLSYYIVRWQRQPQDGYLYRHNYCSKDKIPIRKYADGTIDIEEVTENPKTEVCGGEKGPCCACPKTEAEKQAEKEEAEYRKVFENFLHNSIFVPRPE
T1 sequence (P08069 741-1367 partner limits assumed): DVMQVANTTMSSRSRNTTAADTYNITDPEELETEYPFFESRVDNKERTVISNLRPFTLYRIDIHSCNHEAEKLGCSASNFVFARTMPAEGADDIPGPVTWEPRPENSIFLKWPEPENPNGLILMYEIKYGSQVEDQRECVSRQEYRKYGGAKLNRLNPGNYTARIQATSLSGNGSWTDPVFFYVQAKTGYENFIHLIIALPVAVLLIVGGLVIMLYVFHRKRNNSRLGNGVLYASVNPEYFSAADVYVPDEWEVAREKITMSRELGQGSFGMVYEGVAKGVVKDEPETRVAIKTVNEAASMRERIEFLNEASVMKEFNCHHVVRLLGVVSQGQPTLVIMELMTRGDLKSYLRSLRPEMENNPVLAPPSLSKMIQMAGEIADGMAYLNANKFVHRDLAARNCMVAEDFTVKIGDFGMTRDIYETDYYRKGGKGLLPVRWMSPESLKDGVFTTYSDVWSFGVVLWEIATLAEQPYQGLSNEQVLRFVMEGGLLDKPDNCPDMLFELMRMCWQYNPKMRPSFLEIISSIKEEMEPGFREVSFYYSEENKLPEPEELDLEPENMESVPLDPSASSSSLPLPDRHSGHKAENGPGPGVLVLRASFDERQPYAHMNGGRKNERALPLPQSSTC

Data set [3] concerns the target T1, IGF-1 receptor. As to the kind of experiment: IGF-1 receptor binding assay (competition, scintillation proximity). Details: expressed in transfected cells; plasma membrane fragments. Particulars: Table 9. Background: SPA uses beads or plates that emit light when radiolabelled molecules are held near them.
Data set [4] has as its target T2, insulin receptor (Homo sapiens, UniProt P06213). The data set can be described thus: Insulin receptor binding assay (competition, scintillation proximity). Set-up: expressed in transfected cells; plasma membrane fragments.
Data set [5] deals with T2, insulin receptor. The data set can be described thus: Insulin receptor phosphorylation assay, receptor transfected HEK293 cells. In kind it is cell-based. Set-up: expressed in transfected cells; host or cells: HEK293. To be noted: FIGS. 22A, 22B. As for the experimental part: as §1

*1 amine or outer side, *2 acyl side, *3 side chain or, on linkers, in order; H or OH if unused. Where a SMILES comes first, the peptide text is derived from it. Side-chain parts run from the residue outwards. [ ]: non-standard residue; d: D form. The star is where a group is joined. Phe(4-NH2) = Nc1ccc(C[C@H](N)C(=O)O)cc1; d(εLys) = N[C@H](CCCCN[*:1])C(=O)[*:2]; εLys = N[C@@H](CCCCN[*:1])C(=O)[*:2]; Isobutyryl(2-OH) = CC(C)(O)C(=O)*; NMeA = CN[C@@H](C)C(=O)O; Sar = CNCC(=O)O

For orientation: half-life means the time needed for the level to fall by half in the phase considered. A higher half-life goes with slow decline. As for `CC[C@H](C)[C@H](NC(=O)CN)C(=O)N[C@H](C(=O)N[C@@H](CC(=O)O)C(=O)N[C@@H](CCC(=O)O)C(=O)N[C@@H](C)C(=O)N[C@@H](C)C(=O)N[C@@H](Cc1ccccc1)C(=O)N[C@@H](CCCNC(=N)N)C(=O)N[C@@H](CO)C(=O)N[C@@H](C)C(=O)N[C@@H](CC(=O)O)C(=O)N[C@@H](CC(C)C)C(=O)N[C@@H](CCCNC(=N)N)C(=O)N[C@@H](CCCNC(=N)N)C(=O)N[C@@H](CC(C)C)C(=O)N[C@@H](CCC(=O)O)C(=O)N[C@@H](CCSC)C(=O)N[C@@H](Cc1ccc(NC(=O)[C@@H]2CCCN2C(=O)C(C)(C)O)cc1)C(=O)N[C@@H](C)C(=O)N[C@@H](C)C(N)=O)C(C)C` [AiBOH Pro] (H-GIVDEAAFRSADLRRLEM[Phe(4-NH2)]([Pro-Isobutyryl(2-OH)])AA-NH2; N-terminus assumed), the half-life in data set [1] (Half Life (hr)) and in data set [1] (Half Life (hr) PBS) was 165 h each time.
`CC[C@H](C)[C@H](NC(=O)CN)C(=O)N[C@H](C(=O)N[C@@H](CC(=O)O)C(=O)N[C@@H](CCC(=O)O)C(=O)N[C@@H](C)C(=O)N[C@@H](C)C(=O)N[C@@H](Cc1ccccc1)C(=O)N[C@@H](CCCNC(=N)N)C(=O)N[C@@H](CO)C(=O)N[C@@H](C)C(=O)N[C@@H](CC(=O)O)C(=O)N[C@@H](CC(C)C)C(=O)N[C@@H](CCCNC(=N)N)C(=O)N[C@@H](CCCNC(=N)N)C(=O)N[C@@H](CC(C)C)C(=O)N[C@@H](CCC(=O)O)C(=O)N[C@@H](CCSC)C(=O)N[C@@H](Cc1ccc(NC(=O)CN(C)C(=O)C(C)(C)O)cc1)C(=O)N[C@@H](C)C(=O)N[C@@H](C)C(N)=O)C(C)C` [AiBOH Sar] (H-GIVDEAAFRSADLRRLEM[Phe(4-NH2)]([Sar-Isobutyryl(2-OH)])AA-NH2; N-terminus assumed): the half-life in data set [1] (Half Life (hr)) and in data set [1] (Half Life (hr) PBS) was 2.3 h each time.
Broadly, the EC50 is the midpoint of the concentration-response curve. For `CC[C@H](C)[C@H](NC(=O)CN)C(=O)N[C@H](C(=O)N[C@@H](CC(=O)O)C(=O)N[C@@H](CCC(=O)O)C(=O)N[C@H]1CSSC[C@@H]2NC(=O)[C@H](CO)NC(=O)[C@H](CCCNC(=N)N)NC(=O)[C@H](Cc3ccccc3)NC(=O)[C@H](CSSC[C@H](NC(=O)[C@H](CC(C)C)NC(=O)[C@H](Cc3c[nH]cn3)NC(=O)[C@H](CCC(=O)O)NC(=O)[C@@H]3CCCN3C(=O)CN)C(=O)NCC(=O)N[C@@H](C)C(=O)N[C@@H](CC(=O)O)C(=O)N[C@@H](CC(C)C)C(=O)N[C@@H](C(C)C)C(=O)N[C@@H](CC(=O)O)C(=O)N[C@@H](C)C(=O)N[C@@H](CC(C)C)C(=O)N[C@@H](Cc3ccc(O)cc3)C(=O)N[C@@H](CC(C)C)C(=O)N[C@@H](C(C)C)C(=O)N[C@H](C(=O)NCC(=O)N[C@@H](CC(=O)O)C(=O)N[C@@H](CCCNC(=N)N)C(=O)NCC(=O)N[C@@H](Cc3ccccc3)C(=O)N[C@@H](Cc3ccc(O)cc3)C(N)=O)CSSC[C@@H](C(=O)N[C@@H](C)C(N)=O)NC(=O)[C@H](Cc3ccc(O)cc3)NC(=O)[C@H](CCSC)NC(=O)[C@H](CCC(=O)O)NC(=O)[C@H](CC(C)C)NC(=O)[C@H](CCCNC(=N)N)NC(=O)[C@H](CCCNC(=N)N)NC(=O)[C@H](CC(C)C)NC(=O)[C@H](CC(=O)O)NC2=O)NC1=O)C(C)C` [IGF-1 A:B (H5D10Y16L17) DPI], the “IGF-1 Receptor % IGF” value on IGF-1 receptor [2] amounted to 7.1%. The EC50 at IGF-1 receptor [2] (total phosphorylation) was determined as 12.2 nM. Also, at IGF-1 receptor [3], the “IGF-1 Receptor % IGF-1 (in test)” value was determined as 11.2%. For the same molecule, the Ratio on insulin receptor [4] (IGF-1 receptor IC50 over insulin receptor IC50) is given as 29.1. In addition, the “Insulin Receptor % insulin (in test)” value on insulin receptor [4] (Table 9) is listed as 479.0%.
Take `CC[C@H](C)[C@H](NC(=O)CN)C(=O)N[C@H](C(=O)N[C@@H](CC(=O)O)C(=O)N[C@@H](CCC(=O)O)C(=O)N[C@@H](C)C(=O)N[C@@H](C)C(=O)N[C@@H](Cc1ccccc1)C(=O)N[C@@H](CCCNC(=N)N)C(=O)N[C@@H](CO)C(=O)N[C@@H](C)C(=O)N[C@@H](CC(=O)O)C(=O)N[C@@H](CC(C)C)C(=O)N[C@@H](CCCNC(=N)N)C(=O)N[C@@H](CCCNC(=N)N)C(=O)N[C@@H](CC(C)C)C(=O)N[C@@H](CCC(=O)O)C(=O)N[C@@H](CCSC)C(=O)N[C@@H](Cc1ccc(NC(=O)[C@H](C)N(C)C(=O)[C@@H](N)CCCCNC(C)=O)cc1)C(=O)N[C@@H](C)C(=O)N[C@@H](C)C(N)=O)C(C)C` [K(acetyl) N-methyl Ala] (H-GIVDEAAFRSADLRRLEM[Phe(4-NH2)]([NMeA-εLys-Ac])AA-NH2; N-terminus assumed): the half-life in data set [1] (Half Life (hr)) and in data set [1] (Half Life (hr) PBS) was 23.6 h in each case.
Regarding `CC[C@H](C)[C@H](NC(=O)CN)C(=O)N[C@H](C(=O)N[C@@H](CC(=O)O)C(=O)N[C@@H](CCC(=O)O)C(=O)N[C@@H](C)C(=O)N[C@@H](C)C(=O)N[C@@H](Cc1ccccc1)C(=O)N[C@@H](CCCNC(=N)N)C(=O)N[C@@H](CO)C(=O)N[C@@H](C)C(=O)N[C@@H](CC(=O)O)C(=O)N[C@@H](CC(C)C)C(=O)N[C@@H](CCCNC(=N)N)C(=O)N[C@@H](CCCNC(=N)N)C(=O)N[C@@H](CC(C)C)C(=O)N[C@@H](CCC(=O)O)C(=O)N[C@@H](CCSC)C(=O)N[C@@H](Cc1ccc(NC(=O)[C@H](C)N(C)C(=O)[C@H](N)CCCCNC(C)=O)cc1)C(=O)N[C@@H](C)C(=O)N[C@@H](C)C(N)=O)C(C)C` [dK(acetyl) N-methyl Ala] (H-GIVDEAAFRSADLRRLEM[Phe(4-NH2)]([NMeA-d(εLys)-Ac])AA-NH2; N-terminus assumed), the half-life in data set [1] (Half Life (hr)) and in data set [1] (Half Life (hr) PBS) was 35.3 h throughout.
Consider `CC[C@H](C)[C@H](NC(=O)CN)C(=O)N[C@H](C(=O)N[C@@H](CC(=O)O)C(=O)N[C@@H](CCC(=O)O)C(=O)N[C@@H](C)C(=O)N[C@@H](C)C(=O)N[C@@H](Cc1ccccc1)C(=O)N[C@@H](CCCNC(=N)N)C(=O)N[C@@H](CO)C(=O)N[C@@H](C)C(=O)N[C@@H](CC(=O)O)C(=O)N[C@@H](CC(C)C)C(=O)N[C@@H](CCCNC(=N)N)C(=O)N[C@@H](CCCNC(=N)N)C(=O)N[C@@H](CC(C)C)C(=O)N[C@@H](CCC(=O)O)C(=O)N[C@@H](CCSC)C(=O)N[C@@H](Cc1ccc(NC(=O)CN(C)C(=O)[C@H](N)CCCCNC(C)=O)cc1)C(=O)N[C@@H](C)C(=O)N[C@@H](C)C(N)=O)C(C)C` [dK(acetyl) Sar] (H-GIVDEAAFRSADLRRLEM[Phe(4-NH2)]([Sar-d(εLys)-Ac])AA-NH2; N-terminus assumed), for which the half-life is 16.3 h in data set [1] (Half Life (hr)) and 17.2 h in data set [1] (Half Life (hr) PBS).

B1: DP20 C^0CTP: native proinsulin C peptide linked to a CTP peptide as linking peptide (SEQ ID NO: 74) (protein, listed as Homo sapiens)
chain: GEEEEEKGPEHLCGAHLVDALYLVCGDRGFYRREAEDLQVGQVELGGGPGAGSLQPLALEGSLQRKSSSSRAPPPSLPSPSRLPGPSDTPILPQKGIVDECCHRSCDLRRLENYCN
Consider B1, for which the “in vitro phosphorylation activity at the insulin receptor (result in words)” value in the data set with insulin receptor [5] is reported as “appear to have activity at the insulin receptor”.

B2: DP20 CTPC^0: CTP peptide linked to native proinsulin C peptide as linking peptide (SEQ ID NO: 73) (protein, listed as Homo sapiens)
chain: GEEEEEKGPEHLCGAHLVDALYLVCGDRGFYSSSSRAPPPSLPSPSRLPGPSDTPILPQKRREAEDLQVGQVELGGGPGAGSLQPLALEGSLQRKGIVDECCHRSCDLRRLENYCN
With B2, the “in vitro phosphorylation activity at the insulin receptor (result in words)” value with insulin receptor [5] is listed as “appears more potent than DP20 C^0CTP”.

(Values after patent US9573987B2 (priority 2011, dated 2017).)
